≈ marks a conversion by molar mass, not a printed value.
How the values were obtained:
E. coli SA/2 (ESBL) = experiment: Antibacterial MIC/MBC (broth microdilution); assay type: cell-based, Escherichia coli; conditions: Escherichia coli
Outline: (§1)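 Broth microdilution in MHB2, two-fold dilutions 0.062–64 μg/mL, inoculum about 5×10^5 CFU/mL, 20 h at 37°C. MIC is the lowest concentration preventing visible growth. MBC is the lowest concentration killing 99.9% of the inoculum after plating clear wells on MH agar; Listonella was subcultured on nutrient agar.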

[1] = system: E. coli 2252 (COL-resistant); experiment: Antibacterial MIC/MBC (broth microdilution); assay type: cell-based, Escherichia coli; conditions: Escherichia coli, E. coli 2252 (COL-resistant); for MBC: read-out: MBC; for MIC: read-out: MIC
Outline: as §1

C. jejuni P5/4 = experiment: Antibacterial MIC/MBC (broth microdilution); assay type: cell-based, Campylobacter jejuni; conditions: Campylobacter jejuni; for MBC: read-out: MBC; for MIC: read-out: MIC
C. jejuni 4448 = experiment: Antibacterial MIC/MBC (broth microdilution); assay type: cell-based, Campylobacter jejuni; conditions: Campylobacter jejuni; for MBC: read-out: MBC; for MIC: read-out: MIC
C. jejuni 4433 = experiment: Antibacterial MIC/MBC (broth microdilution); assay type: cell-based, Campylobacter jejuni; conditions: Campylobacter jejuni; for MBC: read-out: MBC; for MIC: read-out: MIC
C. jejuni 4432 = experiment: Antibacterial MIC/MBC (broth microdilution); assay type: cell-based, Campylobacter jejuni; conditions: Campylobacter jejuni; for MBC: read-out: MBC; for MIC: read-out: MIC
[2] = system: Klebsiella pneumoniae ATCC 13883; experiment: Antibacterial MIC/MBC (broth microdilution); assay type: cell-based; conditions: ATCC13883, Klebsiella pneumoniae ATCC 13883; for MBC: read-out: MBC; for MIC: read-out: MIC
Outline: as §1

[3] = system: Staphylococcus aureus ATCC 29213; experiment: Antibacterial MIC/MBC (broth microdilution); assay type: cell-based; conditions: for MBC: ATCC29213, read-out: MBC; for MIC: ATCC29213, read-out: MIC
Outline: as §1

[4] = system: Campylobacter jejuni ATCC 33560; experiment: Antibacterial MIC/MBC (broth microdilution); assay type: cell-based; conditions: ATCC33560, Campylobacter jejuni ATCC 33560; for MBC: read-out: MBC; for MIC: read-out: MIC
[5] = system: Salmonella enterica serovar Typhimurium CECT 443; experiment: Antibacterial MIC/MBC (broth microdilution); assay type: cell-based; conditions: for MBC: read-out: MBC; for MIC: read-out: MIC
Outline: as §1

[6] = system: Listonella anguilarum ATCC 1924; experiment: Antibacterial MIC/MBC (broth microdilution); assay type: cell-based; conditions: Listonella anguilarum ATCC 1924; for MBC: read-out: MBC; for MIC: read-out: MIC
Outline: as §1

[7] = system: Yersinia ruckeri ATCC 29473; experiment: Antibacterial MIC/MBC (broth microdilution); assay type: cell-based; conditions: for MBC: ATCC29473, read-out: MBC; for MIC: ATCC29473, read-out: MIC
Outline: as §1

E. faecalis B3/101 (VRE) = experiment: Antibacterial MIC/MBC (broth microdilution); assay type: cell-based, Enterococcus faecalis; conditions: Enterococcus faecalis, E. faecalis B3/101 (VRE); for MBC: read-out: MBC; for MIC: read-out: MIC
Outline: as §1

[8] = system: Enterococcuss faecalis ATCC 29212; experiment: Antibacterial MIC/MBC (broth microdilution); assay type: cell-based, Enterococcus faecalis; conditions: Enterococcus faecalis, ATCC29212, Enterococcuss faecalis ATCC 29212; for MBC: read-out: MBC; for MIC: read-out: MIC
Outline: as §1

S. aureus 66/1 (MRSA) = experiment: Antibacterial MIC/MBC (broth microdilution); assay type: cell-based, Staphylococcus aureus; conditions: Staphylococcus aureus; for MBC: read-out: MBC; for MIC: read-out: MIC
Outline: as §1

[9] = system: Tenacibaculum maritimum ATCC 43397; experiment: Antibacterial disk diffusion; assay type: cell-based; conditions: Tenacibaculum maritimum ATCC 43397, footnote *

C[C@H](CCC(=O)N1CCN(C(=O)OC(C)(C)C)CC1)[C@H]1CC[C@H]2[C@@H]3CC[C@@H]4C[C@H](O)CC[C@]4(C)[C@H]3C[C@H](O)[C@]12C [Compound 5, tert-butyl 4-((R)-4-((3R,5R,8R,9S,10S,12S,13R,14S,17R)-3,12-dihydroxy-10,13-dimethylhexadecahydro-1H-cyclopenta[a]phenanthren-17-yl)pentanoyl)piperazine-1-carboxylate]
MBC (E. coli SA/2 (ESBL)): > 64 µg/mL
MIC (E. coli SA/2 (ESBL)): > 64 µg/mL
MBC [1]: > 64 µg/mL
MIC [1]: > 64 µg/mL
MBC (C. jejuni P5/4): > 64 µg/mL
MIC (C. jejuni P5/4): > 64 µg/mL
MBC (C. jejuni 4448): > 64 µg/mL
MIC (C. jejuni 4448): > 64 µg/mL
MBC (C. jejuni 4433): > 64 µg/mL
MIC (C. jejuni 4433): > 64 µg/mL
MBC (C. jejuni 4432): > 64 µg/mL
MIC (C. jejuni 4432): > 64 µg/mL
MBC [2]: > 64 µg/mL
MIC [2]: > 64 µg/mL
MBC [3]: > 64 µg/mL
MIC [3]: 16 µg/mL (≈ 28.5 µM)
MBC [4]: > 64 µg/mL
MIC [4]: > 64 µg/mL
MBC [5]: > 64 µg/mL
MIC [5]: > 64 µg/mL
MBC [6]: > 64 µg/mL
MIC [6]: > 64 µg/mL
MBC [7]: > 64 µg/mL
MIC [7]: > 64 µg/mL
MBC (E. faecalis B3/101 (VRE)): > 64 µg/mL
MIC (E. faecalis B3/101 (VRE)): > 64 µg/mL
MBC [8]: > 64 µg/mL
MIC [8]: > 64 µg/mL
MBC (S. aureus 66/1 (MRSA)): > 64 µg/mL
MIC (S. aureus 66/1 (MRSA)): 64 µg/mL (≈ 114 µM)
Inhibition zone diameter (disk diffusion) [9]: 10 mm

C[C@H](CCC(=O)N1CCOCC1)[C@H]1CC[C@H]2[C@@H]3CC[C@@H]4C[C@H](O)CC[C@]4(C)[C@H]3C[C@H](O)[C@]12C [Compound 3, (R)-4-((3R,5R,8R,9S,10S,12S,13R,14S,17R)-3,12-dihydroxy-10,13-dimethylhexadecahydro-1H-cyclopenta[a]phenanthren-17-yl)-1-morpholinopentan-1-one]
MBC (E. coli SA/2 (ESBL)): > 64 µg/mL
MIC (E. coli SA/2 (ESBL)): > 64 µg/mL
MBC [1]: > 64 µg/mL
MIC [1]: > 64 µg/mL
MBC (C. jejuni P5/4): > 64 µg/mL
MIC (C. jejuni P5/4): > 64 µg/mL
MBC (C. jejuni 4448): > 64 µg/mL
MIC (C. jejuni 4448): > 64 µg/mL
MBC (C. jejuni 4433): > 64 µg/mL
MIC (C. jejuni 4433): > 64 µg/mL
MBC (C. jejuni 4432): > 64 µg/mL
MIC (C. jejuni 4432): > 64 µg/mL
MBC [2]: > 64 µg/mL
MIC [2]: > 64 µg/mL
MBC [3]: > 64 µg/mL
MIC [3]: > 64 µg/mL
MBC [4]: > 64 µg/mL
MIC [4]: > 64 µg/mL
MBC [5]: > 64 µg/mL
MIC [5]: > 64 µg/mL
MBC [6]: > 64 µg/mL
MIC [6]: > 64 µg/mL
MBC [7]: > 64 µg/mL
MIC [7]: > 64 µg/mL
MBC (E. faecalis B3/101 (VRE)): > 64 µg/mL
MIC (E. faecalis B3/101 (VRE)): > 64 µg/mL
MBC [8]: > 64 µg/mL
MIC [8]: > 64 µg/mL
MBC (S. aureus 66/1 (MRSA)): > 64 µg/mL
MIC (S. aureus 66/1 (MRSA)): > 64 µg/mL
Inhibition zone diameter (disk diffusion) [9]: 10 mm
